Source: patent publication US20200179302A1, “USE OF DIPHENOL IN PREPARATION OF MEDICINES FOR PREVENTION AND TREATMENT OF CEREBRAL ISCHEMIA” (XI'AN LIBANG PHARMACEUTICAL CO., LTD, priority 2016, published 2020)

How the values were obtained:
[1] = tested on: rats with cerebral ischemic reperfusion injury; assay: Cerebral ischemic reperfusion (MCAO, suture method) rat model; assay type: in vivo; conditions: for Relative cerebral infarction volume(%): 40 mg/kg i.v. 30 min before and 12 h after reperfusion, TTC
[2] = tested on: permanent cerebral ischemia model rats; assay: Permanent cerebral ischemia (MCAO, suture method) rat model; conditions: for Relative cerebral infarction volume(%): 40 mg/kg i.v. 30 min before insertion of thread and 12 h after embolism, TTC; for Fas average gray scale: gray scale inversely proportional to expression
[3] = 40 mg/kg i.v., brain sections, TUNEL

Compound	Relative cerebral infarction volume(%) ([1]; 24 h after reperfusion)	Relative cerebral infarction volume(%) ([2]; 24 h after embolism)	Number of apoptotic cells [1, 3]	Fas average gray scale ([1]; 40 mg/kg i.v., brain sections, immunohistochemistry, gray scale inversely proportional to expression)	Number of apoptotic cells [2, 3]	Fas average gray scale ([2]; 40 mg/kg i.v., brain sections, immunohistochemistry)	Relative cerebral infarct volume (%) ([1]; edaravone 3 mg/kg, 24 h after reperfusion)	Relative cerebral infarct volume (%) ([2]; edaravone 3 mg/kg, 24 h after embolism)	Fas average gray scale ([2]; edaravone 3 mg/kg, brain sections)	TNF-α content ([2]; edaravone 3 mg/kg, brain tissue homogenate)
CC(=O)Oc1c(C(C)C)cc(-c2cc(C(C)C)c(OC(C)=O)c(C(C)C)c2)cc1C(C)C [Example 3, 3,3′,5,5′-tetraisopropylbiphenyl-4′-diacetate]	23.22 ± 3.12 %	27.92 ± 4.51 %								
CC(=O)Oc1c(C(C)C)cc(-c2cc(C(C)C)c(O)c(C(C)C)c2)cc1C(C)C [Example 2, 4′-hydroxy-3,3′,5,5′-tetraisopropylbiphenyl-4-acetate]	18.71 ± 4.69 %	24.71 ± 3.76 %	19.14 ± 4.24	162.47 ± 3.96	20.41 ± 5.02	158.28 ± 6.66				
CC1=NN(c2ccccc2)C(=O)C1 [Edaravone injection, edaravone]							29.31 ± 3.95 %	31.29 ± 4.02 %	138.95 ± 5.50	5.53 ± 0.54 ng/mL
